From patent US8445409B2, “Use of 5-benzyloxymethyl-1,2-isoxazoline derivatives as a herbicide” (Moghu Research Center Ltd., priority 2007, dated 2013)

How the values were obtained:
Cotton = assay: Upland pot test, pre-/post-emergence spray, visual rating; format: in vivo, cotton (GOSHI); conditions: for Visual measurement: Crops, Cotton: 2 weeks after spray, 0-10 scale (10=completely killed)
Text: (§1) To a rectangular plastic pot having a surface area of 300 cm^2, mixed soils including blend bed soil (Boonong, Horticultural Bed Soil No. 3) and sandy loam soil were filled (mixing ratio, 1:1). Seeds of the eight different types of weeds including gramineous weed such as barnyardgrass, large crabgrass, green foxtail, fall panicum, and broadleaf weed such as common cocklebur, velvetleaf, Indian joint-vetch, and morningglory were sown. To the other pot containing the same soil mixture, seeds of the five different types of crops including corn, soybean, cotton, wheat and rice were sown. Pots were kept in a greenhouse of which temperature was maintained at 25˜30° C. (day) or 15˜25° C. (night), and regularly watered.
(§2) After fourteen days and when the crops and the weeds reached their three-leaf stage, the other set of a crop pot and a weed pot were prepared by the same method as described above. Then, “test substance” was sprayed thereto. In this case, spray treatment to the plants after they have grown for two weeks corresponded to post-emergence treatment while spray treatment to the seeds right after the sowing corresponded to pre-emergence treatment. Spray was carried out by using a track sprayer (R&D Sprayer, USA) equipped with a Teejet 8002 nozzle (Spraying Systems Co., USA). Spray volume was adjusted to 300 L/ha. The spray solution was prepared by dissolving the “test substance” in acetone and adding the same volume of 0.2% (v/v) Tween 20 aqueous solution. Dosage of the test substance was 500, 250, 125, 62.5 or 31.3 g/ha. Two weeks after the spray of the test substance, efficacy and phytotoxic effect to the crops and the weeds were visually measured based on a 0 to 10 scale (0: no efficacy, 10: completely killed).

Morningglory = assay: as above; format: in vivo, morningglory (IPOSP); conditions: 2 weeks after spray, 0-10 scale (10=completely killed)
Text: as §1, §2

Annual bluegrass = assay: Selective control of grassy weeds in turf (Example 3-1), visual rating; format: in vivo; conditions: four weeks after spray, 0-100 scale (100=completely killed); for Herbicidal activity, visual: Weeds ABG (POST): 3 leaf stage
Text: (§3) Commercially available sod mats of zoysiagrass and bentgrass, Kentucky bluegrass, and perennial ryegrass were purchased. After cutting each turf sod mat in a size of 10 cm×20 cm, it was transplanted to a rectangular plastic pot having a surface area of 300 cm^2 wherein mixed soils including blend of a bed soil (Boonong, Horticultural Nursery Soil No. 3) and sandy loam soil were filled (mixing ratio, 1:1). After transplanting, the grass was mowed (0.5˜1.0 cm in height) once a week, and kept for one month in a greenhouse maintained at 25˜30° C. (day) or 15˜25° C. (night). Then three strips of 1 cm width were removed by excision with a scissor. The open space was filled with a new soil, and seeds of large crabgrass, annual bluegrass, or goosegrass were sown. The pots were kept in a greenhouse. When the said weeds were grown up to the 3 leaf stage, another set was prepared in the same method. The first set represented post-emergence (POST) and the second set represented pre-emergence (PRE) stages of the weeds (large crabgrass, annual bluegrass, goosegrass). Then the test compound was applied at 0.25, 0.5. 1.0, 2.0, and 4.0 kg/ha. Spray was made by a track sprayer equipped with a Teejet 8002 nozzle. Spray volume was adjusted to 2,000 L/ha. The spray solution was prepared by dissolving the “test substance” in acetone and adding the same volume of 0.2% (v/v) Tween 20 aqueous solution. Four weeks after the spray of the test substance, phytotoxicity to the turfgrass and herbicidal activity to the said weeds were visually evaluated based on 0 to 100 scale (0: no phytotoxic effect, 100: completely killed). The test was conducted in a completely randomized design with 3 replicates.

Bentgrass = assay: as above; format: in vivo; conditions: four weeks after spray, 0-100 scale (100=completely killed)
Text: as §3

Goosegrass = assay: as above; format: in vivo; conditions: four weeks after spray, 0-100 scale (100=completely killed); for Herbicidal activity, visual: Weeds GSG (POST): 3 leaf stage
Text: as §3

Kentucky bluegrass = assay: as above; format: in vivo; conditions: four weeks after spray, 0-100 scale (100=completely killed)
Text: as §3

Large crabgrass = assay: as above; format: in vivo; conditions: four weeks after spray, 0-100 scale (100=completely killed); for Herbicidal activity, visual: Weeds LCG (POST): 3 leaf stage
Text: as §3

Perennial ryegrass = assay: as above; format: in vivo; conditions: four weeks after spray, 0-100 scale (100=completely killed)
Text: as §3

Zoysiagrass = assay: as above; format: in vivo; conditions: four weeks after spray, 0-100 scale (100=completely killed)
Text: as §3

[1] = tested on: crops such as corn, rice, wheat, soybean and cotton; assay: Upland pot test, crops as a group; format: in vivo; conditions: pre-emergence, 500 g/ha
Text: as §1
After fourteen days and when the crops and the weeds reached their three-leaf stage, the other set of a crop pot and a weed pot were prepared by the same method as described above. Then, “test substance” was sprayed thereto. In this case, spray treatment to the plants after they have grown for two weeks corresponded to post-emergence treatment while spray treatment to the seeds right after the sowing corresponded to pre-emergence treatment. […] Two weeks after the spray of the test substance, efficacy and phytotoxic effect to the crops and the weeds were visually measured based on a 0 to 10 scale (0: no efficacy, 10: completely killed).

[2] = tested on: all the tested gramineous weeds; assay: Example 3-1, gramineous weeds as a group; format: in vivo, large crabgrass, annual bluegrass, goosegrass; conditions: PRE and POST timings, 0.25 kg/ha to 4 kg/ha
Text: Commercially available sod mats of zoysiagrass and bentgrass, Kentucky bluegrass, and perennial ryegrass were purchased. After cutting each turf sod mat in a size of 10 cm×20 cm, it was transplanted to a rectangular plastic pot having a surface area of 300 cm^2 wherein mixed soils including blend of a bed soil (Boonong, Horticultural Nursery Soil No. 3) and sandy loam soil were filled (mixing ratio, 1:1). After transplanting, the grass was mowed (0.5˜1.0 cm in height) once a week, and kept for one month in a greenhouse maintained at 25˜30° C. (day) or 15˜25° C. (night). Then three strips of 1 cm width were removed by excision with a scissor. The open space was filled with a new soil, and seeds of large crabgrass, annual bluegrass, or goosegrass were sown. The pots were kept in a greenhouse. When the said weeds were grown up to the 3 leaf stage, another set was prepared in the same method. The first set represented post-emergence (POST) and the second set represented pre-emergence (PRE) stages of the weeds (large crabgrass, annual bluegrass, goosegrass). Then the test compound was applied at 0.25, 0.5. 1.0, 2.0, and 4.0 kg/ha. […] Four weeks after the spray of the test substance, phytotoxicity to the turfgrass and herbicidal activity to the said weeds were visually evaluated based on 0 to 100 scale (0: no phytotoxic effect, 100: completely killed). […]

[3] = post-emergence foliar spray at three leaf stage, 31.2 g/ha
[4] = post-emergence foliar spray at three leaf stage, 62.5 g/ha
[5] = post-emergence foliar spray at three leaf stage, 125 g/ha
[6] = post-emergence foliar spray at three leaf stage, 250 g/ha
[7] = post-emergence foliar spray at three leaf stage, 500 g/ha
[8] = pre-emergence soil treatment, 31.2 g/ha
[9] = pre-emergence soil treatment, 62.5 g/ha
[10] = pre-emergence soil treatment, 125 g/ha
[11] = pre-emergence soil treatment, 250 g/ha
[12] = pre-emergence soil treatment, 500 g/ha

In the case of `Cc1ccsc1C1=NOC(C)(COCc2c(F)cccc2F)C1` (stereo not shown) [test substance, 5-(2,6-difluorobenzyl)oxymethyl-5-methyl-3-(4-methylthiophen-5-yl)-1,2-isoxazoline], the “Visual measurement: Crops, Cotton” value (Cotton; [3]) is reported as 0, the “Visual measurement: Crops, Cotton” value (Cotton; [4]) is reported as 0 and the “Visual measurement: Crops, Cotton” value (Cotton; [5]) is reported as 0. For the same compound, the “Visual measurement: Crops, Cotton” value (Cotton; [6]) was 0, the “Visual measurement: Crops, Cotton” value (Cotton; [7]) was 0 and the “Safety to cotton (in words)” value (Cotton; post-emergence treatment) was “safe”. The “Visual measurement: Crops, Cotton” value (Cotton; [8]) was 0, the “Visual measurement: Crops, Cotton” value (Cotton; [9]) was 0 and the “Visual measurement: Crops, Cotton” value (Cotton; [10]) was 0. The “Visual measurement: Crops, Cotton” value (Cotton; [11]) was 0, the “Visual measurement: Crops, Cotton” value (Cotton; [12]) was 0 and the “Visual measurement: Broadleaf weed, Morningglory” value (shortened to “Visual measurement … Morningglory”) (Morningglory; [3]) was 0. The “Visual measurement … Morningglory” value (Morningglory; [4]) was 0, the “Visual measurement … Morningglory” value (Morningglory; [5]) was 0 and the “Visual measurement … Morningglory” value (Morningglory; [6]) was 1. The “Visual measurement … Morningglory” value (Morningglory; [7]) was 3, the “Visual measurement … Morningglory” value (Morningglory; [8]) was 0 and the “Visual measurement … Morningglory” value (Morningglory; [9]) was 0. The “Visual measurement … Morningglory” value (Morningglory; [10]) was 1, the “Visual measurement … Morningglory” value (Morningglory; [11]) was 2 and the “Visual measurement … Morningglory” value (Morningglory; [12]) was 2. The “Herbicidal activity, visual: Weeds ABG (POST)” value (Annual bluegrass; 0.25 kg/ha) was 60, the “Herbicidal activity, visual: Weeds ABG (PRE)” value (Annual bluegrass; 0.25 kg/ha) was 100 and the “Herbicidal activity, visual: Weeds ABG (POST)” value (Annual bluegrass; 0.5 kg/ha) was 75. The “Herbicidal activity, visual: Weeds ABG (PRE)” value (Annual bluegrass; 0.5 kg/ha) was 100, the “Herbicidal activity, visual: Weeds ABG (POST)” value (Annual bluegrass; 1 kg/ha) was 83 and the “Herbicidal activity, visual: Weeds ABG (PRE)” value (Annual bluegrass; 1 kg/ha) was 100. For the same compound, the “Herbicidal activity, visual: Weeds ABG (POST)” value (Annual bluegrass; 2 kg/ha) was 92, the “Herbicidal activity, visual: Weeds ABG (PRE)” value (Annual bluegrass; 2 kg/ha) was 100 and the “Herbicidal activity, visual: Weeds ABG (POST)” value (Annual bluegrass; 4 kg/ha) was 95. For the same compound, the “Herbicidal activity, visual: Weeds ABG (PRE)” value (Annual bluegrass; 4 kg/ha) was 100, the “Phytotoxicity, visual: Turfgrass BTG” value (Bentgrass; 0.25 kg/ha) was 0 and the “Phytotoxicity, visual: Turfgrass BTG” value (Bentgrass; 0.5 kg/ha) was 0. The “Phytotoxicity, visual: Turfgrass BTG” value (Bentgrass; 1 kg/ha) was 0, the “Phytotoxicity, visual: Turfgrass BTG” value (Bentgrass; 2 kg/ha) was 0 and the “Phytotoxicity, visual: Turfgrass BTG” value (Bentgrass; 4 kg/ha) was 10. For the same compound, the “Herbicidal activity, visual: Weeds GSG (POST)” value (Goosegrass; 0.25 kg/ha) was 85, the “Herbicidal activity, visual: Weeds GSG (PRE)” value (Goosegrass; 0.25 kg/ha) was 100 and the “Herbicidal activity, visual: Weeds GSG (POST)” value (Goosegrass; 0.5 kg/ha) was 95. The “Herbicidal activity, visual: Weeds GSG (PRE)” value (Goosegrass; 0.5 kg/ha) was 100, the “Herbicidal activity, visual: Weeds GSG (POST)” value (Goosegrass; 1 kg/ha) was 100 and the “Herbicidal activity, visual: Weeds GSG (PRE)” value (Goosegrass; 1 kg/ha) was 100. The “Herbicidal activity, visual: Weeds GSG (POST)” value (Goosegrass; 2 kg/ha) was 100, the “Herbicidal activity, visual: Weeds GSG (PRE)” value (Goosegrass; 2 kg/ha) was 100 and the “Herbicidal activity, visual: Weeds GSG (POST)” value (Goosegrass; 4 kg/ha) was 100. The “Herbicidal activity, visual: Weeds GSG (PRE)” value (Goosegrass; 4 kg/ha) was 100, the “Phytotoxicity, visual: Turfgrass KBG” value (Kentucky bluegrass; 0.25 kg/ha) was 0 and the “Phytotoxicity, visual: Turfgrass KBG” value (Kentucky bluegrass; 0.5 kg/ha) was 0. For the same compound, the “Phytotoxicity, visual: Turfgrass KBG” value (Kentucky bluegrass; 1 kg/ha) was 0, the “Phytotoxicity, visual: Turfgrass KBG” value (Kentucky bluegrass; 2 kg/ha) was 0 and the “Phytotoxicity, visual: Turfgrass KBG” value (Kentucky bluegrass; 4 kg/ha) was 21. The “Herbicidal activity, visual: Weeds LCG (POST)” value (Large crabgrass; 0.25 kg/ha) was 80, the “Herbicidal activity, visual: Weeds LCG (PRE)” value (Large crabgrass; 0.25 kg/ha) was 100 and the “Herbicidal activity, visual: Weeds LCG (POST)” value (Large crabgrass; 0.5 kg/ha) was 90. For the same compound, the “Herbicidal activity, visual: Weeds LCG (PRE)” value (Large crabgrass; 0.5 kg/ha) was 100, the “Herbicidal activity, visual: Weeds LCG (POST)” value (Large crabgrass; 1 kg/ha) was 95 and the “Herbicidal activity, visual: Weeds LCG (PRE)” value (Large crabgrass; 1 kg/ha) was 100. The “Herbicidal activity, visual: Weeds LCG (POST)” value (Large crabgrass; 2 kg/ha) was 100, the “Herbicidal activity, visual: Weeds LCG (PRE)” value (Large crabgrass; 2 kg/ha) was 100 and the “Herbicidal activity, visual: Weeds LCG (POST)” value (Large crabgrass; 4 kg/ha) was 100. The “Herbicidal activity, visual: Weeds LCG (PRE)” value (Large crabgrass; 4 kg/ha) was 100, the “Phytotoxicity, visual: Turfgrass PRG” value (Perennial ryegrass; 0.25 kg/ha) was 0 and the “Phytotoxicity, visual: Turfgrass PRG” value (Perennial ryegrass; 0.5 kg/ha) was 0. For the same compound, the “Phytotoxicity, visual: Turfgrass PRG” value (Perennial ryegrass; 1 kg/ha) was 0, the “Phytotoxicity, visual: Turfgrass PRG” value (Perennial ryegrass; 2 kg/ha) was 0 and the “Phytotoxicity, visual: Turfgrass PRG” value (Perennial ryegrass; 4 kg/ha) was 0. For the same compound, the “Phytotoxicity, visual: Turfgrass ZSG” value (Zoysiagrass; 0.25 kg/ha) was 0, the “Phytotoxicity, visual: Turfgrass ZSG” value (Zoysiagrass; 0.5 kg/ha) was 0 and the “Phytotoxicity, visual: Turfgrass ZSG” value (Zoysiagrass; 1 kg/ha) was 0. For the same compound, the “Phytotoxicity, visual: Turfgrass ZSG” value (Zoysiagrass; 2 kg/ha) was 0, the “Phytotoxicity, visual: Turfgrass ZSG” value (Zoysiagrass; 4 kg/ha) was 12 and the “Phytotoxic effect to crops (in words)” value [1] was “completely safe without any phytotoxic effect”. For the same compound, the “Control of tested gramineous weeds (in words)” value [2] was “very effectively”.
